Reference: patent publication US8557823B2, “Family of PFKFB3 inhibitors with anti-neoplastic activities” (Advanced Cancer Therapeutics, LLC, priority 2007, dated 2013)

Legend:
[1] = Toxicity studies, highest tolerated dose; type: in vivo, mice; settings: intraperitoneal (IP) injection in DMSO
[2] = test system: +/+ ht/LT/ras fibroblasts; test: Growth inhibition of wild-type transformed fibroblasts; type: cell-based, mice; settings: Mus musculus, Fibroblast, 48 hours
Excerpt: FIG. 6B is a bar graph showing the anti-proliferative effects of 3PO in fibroblasts from wild-type (+/+) or haplo-insufficient (+/−) PFKFB3 mice which were subsequently immortalized and transformed with human telomerase (ht), large T antigen (LT), and oncogenic H-ras^v12. Cell numbers (expressed as % of cell numbers of control cells) for transformed wild type (+/+) cells are shown in solid bars and numbers for transformed haplo-insufficient (+/−) cells are shown in striped bars. As indicated at the bottom of the graph, cells were incubated with vehicle or increasing amounts of 3PO (5, 10, 20, 30, 40, or 60 μM). Viable cells were counted after 48 hours. The bars represent the mean±STD of triplicate values from a representative experiment. * p-value<0.01 represents statistical difference between vehicle control and 3PO treated samples.
Cells were collected 48 hours post-treatment, and cell number and viability were determined by trypan blue exclusion. IC50 values were calculated as the compound 1 concentration needed for 50% of vehicle treated cell growth.
One of the most difficult challenges of new anti-neoplastic therapies is in situ target validation. To address this question, two different cell lines with varying levels of PFKFB3 expression were studied. […]

[3] = test system: Lewis Lung Carcinoma xenografts; test: Lewis Lung Carcinoma xenografts in C57/Blk6 mice; type: in vivo; settings: 0.07 mg/g IP once daily, 14 days
Description: FIG. 7A is a graph showing the effects of 3PO treatment on the growth of Lewis Lung Carcinoma tumor xenografts in C57/Blk6 mice. Tumors were measured daily using blunt end Vernier calipers, and mice with established tumors (130-190 mg) were blindly randomized into either a DMSO control group (•, n=11) or a 3PO treatment group (∘, n=14). Experimental mice were weighed and given daily intraperitoneal (i.p.) injections of either 50 μL DMSO or 0.07 mg/g 3PO in 50 μL DMSO at the indicated time points. Arrows (↓) represent control or 3PO daily administrations. Statistically significant difference between DMSO and 3PO groups was obtained after initial injection (Day 2, p-value<0.0003).
(§1) Exponentially growing MDA-MB231 and HL-60 cells were collected in appropriate medium, washed twice and resuspended in PBS at a concentration of 20×10^7 cells/mL. […] Body weight and tumor growth were monitored daily throughout the study. Tumor masses were determined by measurement with Vernier calipers using the formula: mass (mg)=[width (mm^2)×length (mm)]/2. […]
(§2) The first tumor model tested consisted of mouse Lewis Lung Carcinoma xenografts grown in C57/Blk6 mice. For this study, mice were given IP injections of either DMSO or the calculated dose of 1 once daily for the duration of the study (14 days). […]

[4] = test system: MDA-MB231 human breast adenocarcinoma tumors; test: MDA-MB231 breast adenocarcinoma xenografts in Balb/c nude mice; type: in vivo; settings: 0.07 mg/g IP, three daily injections followed by three days off
Description: FIG. 7B is a graph showing the effects of 3PO treatment on the growth of established MDA-MB231 breast adenocarcinoma tumor zenografts in Balb/c athymic mice. Tumors were measured daily using blunt end Vernier calipers, and mice with established tumors (130-190 mg) were blindly randomized into either a DMSO control group (•, n=14) or a 3PO treatment group (∘, n=13). Experimental mice were weighed and given intraperitoneal (i.p.) injections of either 50 μL DMSO or 0.07 mg/g 3PO in 50 μL DMSO according to a cyclical dosing regimen of three sequential daily injections followed by three off days for the duration of the study (14 days). Arrows (↓) represent control or 3PO administrations. […]
as §1, §2

[5] = Echocardiographic examination of cardiac function; type: in vivo; settings: compound-treated mice, 0.07 mg/g i.p.
Description: A difference in cardiac ^18F-2-DG uptake was also observed between the compound 1-treated and control group mice. Echocardiograms were performed as described in Dawn et al., Proc. Natl. Acad. Aci., U.S.A., 102, 3766-3771 (2005). […] Overall, it appears that 1 targets PFK2 activity in vivo resulting in a reduced glycolytic phenotype.

[6] = test system: Lewis Lung Carcinoma xenografts; test: F2,6BP in Lewis lung carcinoma tumor xenografts; type: in vivo, mice; settings: 0.07 mg/g i.p., four hours post-injection
Description: C57Bl/6 female mice (20 g) were injected subcutaneously with 1×10^6 Lewis lung carcinoma cells. When the xenografts were measured to have a mass of between 150 and 180 mg, the mice were split into two groups. One group was injected i.p. with 0.07 mg/g of compound 1. The other group was used as a control and injected i.p. with 50 μL DMSO. Four hours post-injection, tumors were removed and homogenized in equal volumes of 0.1 M and 0.05 M NaOH. F2,6BP assays were performed as previously described. See Van Shaftingen et al., Eur. J. Biochem, 129, 191-195 (1982). […] F2,6BP concentration in the compound 1-treated mouse xenografts was 8.5±1.7 pmol/mg, while in the control mouse xenografts' F2,6BP concentration was 13.1±1.9 pmol/mg.

## O=C(/C=C/c1cccnc1)c1ccncc1 [Compound 1, 3-(3-pyridinyl)-1-(4-pyridinyl)-2-propen-1-one]
[1]
  highest tolerated dose producing no phenotypic side effects: 0.07 mg/g
[2]
  IC50: 49 µM
[3]
  suppression of xenograft growth compared to DMSO control: 73%
[4]
  maximum inhibition of xenograft growth compared to DMSO controls: 66%
[5]
  ejection fraction: 71%±6%
[6]
  F2,6BP concentration in tumor xenografts: 8.5 ± 1.7 pmol/mg
